Laboratory results as given in patent US4127687A, “Prevention of fouling of marine structures such as boat hulls” (Rohm and Haas Company, priority 1976, dated 1978).
Values after ≈ are worked out from the molar mass of the structure shown.

What was measured:
[1] = test system: barnacle; assay: Membrane Diffusion Raft Trials, barnacle control; type: in vivo, barnacles; details: membrane test, average 15 to 16 weeks of immersion
Outline: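 Test compound held in a plastic container sealed by a porous membrane, diffusing into surrounding seawater on raft panels alongside standard poisons and a non-toxic control membrane. Settlement timed and quantified by regular inspection; scored 0 (none), + (some) or ++ (effective), averaging 15 to 16 weeks' immersion.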

[2] = Water solubility by UV spectrophotometric method; type: physicochemical; details: water, saturated solution; Table 1; read-out: Solubility by UV method
Outline: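 Molar absorptivity determined from UV absorbance of a known-concentration aqueous solution at λmax (10 cm cell). Saturated solution prepared by stirring excess compound in deionized water ~72 hrs, filtered, diluted to mid-scale absorbance; solubility calculated from absorbance using that absorptivity.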

[3] = test system: weed; assay: Membrane Diffusion Raft Trials, weed control; type: in vivo, grass-like algal growth common in sea water; details: membrane test, average 15 to 16 weeks of immersion
Outline: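 Field raft test in sea water: known quantity of compound in container sealed with membrane of known porosity, diffusing into surrounding water; panels at waterline (illuminated, aerated) and flats (poorly lit, deeper). Fouling settlement inspected over about 15-16 weeks average immersion; scored 0 none, + some, ++ effective.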

[4] = Amount of toxicant remaining in the test container after membrane diffusion raft tests; type: physicochemical; set-up: key: 0: empty or trace; +: some; + +: ample; details: after completion of membrane diffusion raft tests
Outline: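 Known amount of compound held in a cylindrical container sealed with a membrane of known porosity, fixed to a raft panel so toxicant diffuses into the surrounding water. Each panel carries 35 test compounds, 4 standard poisons and 1 non-toxic membrane control. After the trial, container contents inspected visually for remaining toxicant (0 = empty or trace).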

[5] = test system: Hydroids; assay: Membrane test, hydroids (Table 1 footnote d); type: in vivo; set-up: key: Effective against Hydroids
Excerpt: 1). FIELD TESTS: - Membrane Diffusion Raft Trials
A known quantity of the test compound is placed into a cylindrical plastic container whose open end is then covered with a membrane of known porosity; the complete unit is attached to the appropriate raft panel so that the poison can freely diffuse into the free water layer around it. Regular inspections, recording time and quantity of settlement, allow a life history of each membrane trial to be constructed. Each raft panel contains 35 compounds to be evaluated together with 4 standard poisons and 1 non-toxic membrane for control.
The behavior on the raft can thus be compared with that of the standard poisons and the non-toxic control. At normal loading a membrane over the standard poisons would be free from macro-fouling after six months immersion. Compounds showing selective effects against restricted groups of fouling organisms also show up by membrane testing.
^d Effective against Hydroids.

[6] = test system: weed; assay: Paint panel / plaque tests against weed (Table 2); type: in vivo, grass-like algal growth common in sea water; set-up: key: high performance; medium performance; low performance; poor or unacceptable performance; details: April to November, 1975
Excerpt: (3) PAINT FORMULATION AND TEST PANEL OR PLAQUE TESTS
In order to evaluate the compound under practical conditions, weighed quantities of promising compounds are ground in standard volumes of a selected range of paint media and brushed out on plaques for marine immersion.
The anti-fouling paint formulations used is exemplified by the following: […]
The most preferred specific compounds were utilized in paints including vinyl chloride-vinyl acetate copolymers, chlorinated rubber, acrylic emulsions, and conventional paints with or without rosin to contain 20% by weight of biocide in the wet film and in some cases (Example 144 and Example 145) with concentrations of 5, 10, and 15% based on the wet film. Each of the compounds is also described in the membrane tests noted above. The paints were applied at normal thicknesses to plaques or panels of 10 centimeters by 10 centimeters which were immersed in various positions as described for the raft noted above. The compounds and results, as against weed, in the season April to November, 1975, are as follows: […]

[7] = test system: Enteromorpha spores; assay: Laboratory toxicity test (Lab Bioassay) with Enteromorpha spores; type: in vivo; details: using Enteromorpha spores
Outline: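 Enteromorpha spores (zoospores or gametes) exposed to test compounds in laboratory toxicity tests. LD50 values expressed as percentage saturated solution.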

SMILES	Barnacle Control [1]	solubility [2]	Weed Control [3]	Contents at the end of test (amount of toxicants remaining in the test container) [4]	Effective against Hydroids (footnote mark d) [5]	Effectiveness in paint CONV (conventional anti-fouling formulation) [6]	Effectiveness in paint CR (chlorinated rubber) [6]	Effectiveness in paint EM (acrylic emulsion) [6]	Effectiveness in paint V (polyvinyl chloride-acetate) [6]	Effectiveness in paint V/R (vinyl/rosin) [6]	Lab Bioassay LD50 [7]
CCCCCCCCn1sc(Cl)c(Br)c1=O [Example 88]	+ +	2.6 µg/mL (≈ 7.96 µM)	+ +	+	d						
CCCCCCCCn1sc(Cl)cc1=O [Example 16]	+ +	66 µg/mL (≈ 266 µM)	+ +	0	d						
CCCCCCCCn1sc(Cl)c(Cl)c1=O [Example 57]	+ +	2.3 µg/mL (≈ 8.15 µM)	+ +	+ +	d	m	h	h	h	h	0.001 percentage saturated solution
CCCCCCCCCCn1sc(Cl)cc1=O [Example 22]	+ +	7.2 µg/mL (≈ 26.1 µM)	+ +	0	d						
